Consider `N#Cc1cccnc1N1CCN(CCNC(=O)c2ccc(F)cc2)CC1`, for which the lipophilicity (logP) (usually a log measure of how a compound divides between an organic and an aqueous phase) was 2.33.

Compound `O=C(NCCN1CCN(c2ccc(Cl)cn2)CC1)c1ccc(F)cc1` registered a logP of 3.36. As for `N#Cc1ccc(N2CCN(CCNC(=O)c3ccc(F)cc3)CC2)cc1`, the figure is 3.02; as for `Cc1ccc(N2CCN(CCNC(=O)c3ccc(F)cc3)CC2)cc1`, 2.95; as for `COc1cccc(C(=O)NCCN2CCN(c3ccc(Cl)cc3)CC2)c1`, 3.31.

Regarding `COc1cccc(C(=O)NCCN2CCN(c3ccc(Cl)cn3)CC2)c1`, the logP stood at 3.24. As to `COc1cccc(C(=O)NCCN2CCN(c3ncccc3C#N)CC2)c1`, the logP is 2.47.

On to `COc1cccc(C(=O)NCCN2CCN(c3ccc(C)cc3)CC2)c1`, for which the logP was 2.83. The value for `O=C(NCCN1CCN(c2ccc(Cl)cc2)CC1)c1ccc(F)cc1` was 3.7.

These data come from the SangsterLogP compilation.
